23 molecules from patent US9273057B2 (Bristol-Myers Squibb Company, priority 2012, dated 2016) can be followed below.

Each structure is given as a SMILES string.

CK2A1 (CK2α/β), sequence (P68400 whole entry, species assumed): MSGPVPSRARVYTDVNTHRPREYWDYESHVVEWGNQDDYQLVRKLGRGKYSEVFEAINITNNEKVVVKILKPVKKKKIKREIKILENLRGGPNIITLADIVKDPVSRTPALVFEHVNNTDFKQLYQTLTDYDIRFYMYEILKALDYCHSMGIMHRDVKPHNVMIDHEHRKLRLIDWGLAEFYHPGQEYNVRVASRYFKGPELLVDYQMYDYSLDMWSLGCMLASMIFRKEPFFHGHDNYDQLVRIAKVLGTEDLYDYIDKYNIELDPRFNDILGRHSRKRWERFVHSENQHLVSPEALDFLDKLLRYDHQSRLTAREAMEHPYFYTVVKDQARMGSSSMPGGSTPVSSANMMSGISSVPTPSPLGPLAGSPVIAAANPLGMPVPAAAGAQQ
CK2A1 (CK2α/β), sequence (P67870 whole entry partner, species assumed): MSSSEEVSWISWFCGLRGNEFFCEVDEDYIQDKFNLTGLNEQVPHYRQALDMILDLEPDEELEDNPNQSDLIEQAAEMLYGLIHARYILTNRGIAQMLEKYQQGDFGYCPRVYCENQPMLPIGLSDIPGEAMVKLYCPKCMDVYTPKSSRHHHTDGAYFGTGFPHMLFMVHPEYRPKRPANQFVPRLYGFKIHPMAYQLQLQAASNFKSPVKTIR

This test concerns the target CK2A1 (CK2α/β) (Homo sapiens, UniProt P68400). Put plainly: CK2 kinase assay, CK2A1 (CK2α/β). It counts as biochemical. The note with it: Table A; read-out: CK2A1 (CK2α/β) (IC50).
On to `CC(C)(O)C1CN(C2CCN(c3cc(C#N)cc(Nc4nc(NC5CC5)c5ncc(C#N)n5n4)c3Cl)CC2)CCO1` (racemic) [Example 148, (+/−) 2-((2-chloro-5-cyano-3-(4-(2-(1-hydroxy-1-mcthylethyl)-4-morpholinyl)-1-piperidinyl)phenyl)amino)-4-(cyclopropylamino)imidazo [2,1-f][1,2,4]triazine-7-carbonitrile], for which the IC50 stood at 1.03 nM.

As for `COC(=O)N[C@H]1CCN(C2CN(c3cc(C#N)cc(Nc4nc(NC5CC5)c5ncc(C#N)n5n4)c3Cl)C2)C[C@@H]1O` (racemic) [Example 154, (+/−) methyl ((3S,4S)-1-(1-(2-chloro-5-cyano-3-((7-cyano-4-(cyclopropylamino)imidazo [2,1-f][1,2,4]triazin-2-yl)amino)phenyl)-3-azetidinyl)-3-hydroxy-4-piperidinyl)carbamate], the IC50 is 0.4 nM. The value for `N#Cc1cc(Nc2nc(NC3CC3)c3ncc(C#N)n3n2)c(Cl)c(N2CC(N3CCC(O)C3)C2)c1` (racemic) [Example 159, (+/−) 2-((2-chloro-5-cyano-3-(3-(3-hydroxy-1-pyrrolidinyl)-1-azetidinyl)phenyl)amino)-4-(cyclopropylamino)imidazo [2,1-f][1,2,4]triazine-7-carbonitrile] was 0.48 nM; that for `CC(C)(O)C1CN(C2CN(c3cc(C#N)cc(Nc4nc(NC5CC5)c5ncc(C#N)n5n4)c3Cl)C2)CCO1` (racemic) [Example 165, (+/−)2-(2-chloro-5-cyano-3-(3-(2-(2-hydroxypropan-2-yl)morpholino)azetidin-1-yl)phenylamino)-4-(cyclopropylamino)imidazo [1,2-f][1,2,4]triazine-7-carbonitrile] was 0.54 nM. The same measure for `CC(=O)N[C@@H]1CCN(c2cc(C#N)cc(Nc3nc(NC4CC4)c4ncc(C#N)n4n3)c2Cl)C[C@H]1O` (racemic) [Example 172, (+/−)-N-((3R,4R)-1-(2-chloro-5-cyano-3-((7-cyano-4-(cyclopropylamino)imidazo[2,1-f][1,2,4]triazin-2-yl)amino)phenyl)-3-hydroxypiperidin-4-yl)acetamide]: 0.51 nM. The same measure for `N#Cc1cc(Nc2nc(NC3CC3)c3ncc(C#N)n3n2)c(Cl)c(N2CC[C@@H](NC(=O)OC3CN(C4COC4)C3)[C@H](O)C2)c1` (racemic) [Example 180, (+/−)-1-(oxetan-3-yl)azetidin-3-yl((3R,4R)-1-(2-chloro-5-cyano-3-((7-cyano-4-(cyclopropylamino)imidazo[2,1-f][1,2,4]triazin-2-yl)amino)phenyl)-3-hydroxypiperidin-4-yl)carbamate]: 0.51 nM; for `N#Cc1cc(Nc2nc(NC3CC3)c3ncc(C#N)n3n2)c(Cl)c(N2CC[C@@H](NC(=O)N3CCOCC3)[C@H](O)C2)c1` (racemic) [Example 181, (+/−)-N-((3R,4R)-1-(2-chloro-5-cyano-3-((7-cyano-4-(cyclopropylamino)imidazo[2,1-f][1,2,4]triazin-2-yl)amino)phenyl)-3-hydroxypiperidin-4-yl)morpholine-4-carboxamide]: 0.88 nM. In the case of `CN1CCN(C(=O)N[C@@H]2CCN(c3cc(C#N)cc(Nc4nc(NC5CC5)c5ncc(C#N)n5n4)c3Cl)C[C@H]2O)CC1` (racemic) [Example 182, (+/−)-N-((3R,4R)-1-(2-chloro-5-cyano-3-((7-cyano-4-(cyclopropylamino)imidazo[2,1-f][1,2,4]triazin-2-yl)amino)phenyl)-3-hydroxypiperidin-4-yl)-4-methylpiperazine-1-carboxamide], the IC50 worked out at 0.66 nM. As for `N#Cc1cc(Nc2nc(NC3CC3)c3ncc(C#N)n3n2)c(Cl)c(N2CC[C@@H](NC(=O)CN3CCOCC3)[C@H](O)C2)c1` (racemic) [Example 183, (+/−)-N-((3R,4R)-1-(2-chloro-5-cyano-3-((7-cyano-4-(cyclopropylamino)imidazo[2,1-f][1,2,4]triazin-2-yl)amino)phenyl)-3-hydroxypiperidin-4-yl)-2-morpholinoacetamide], the IC50 is 0.64 nM. With `CN[C@@H]1CCN(c2cc(C#N)cc(Nc3nc(NC4CC4)c4ncc(C#N)n4n3)c2Cl)C[C@H]1O` (racemic) [Example 186, (+/−)-2-((2-chloro-5-cyano-3-((3R,4R)-3-hydroxy-4-(methylamino)piperidin-1-yl)phenyl)amino)-4-(cyclopropylamino)imidazo[2,1-f][1,2,4]triazine-7-carbonitrile], the IC50 worked out at 1.06 nM. The value for `COC(=O)N(C)[C@@H]1CCN(c2cc(C#N)cc(Nc3nc(NC4CC4)c4ncc(C#N)n4n3)c2Cl)C[C@H]1O` (racemic) [Example 187, (+/−)-methyl ((3R,4R)-1-(2-chloro-5-cyano-3-((7-cyano-4-(cyclopropylamino)imidazo[2,1-f][1,2,4]triazin-2-yl)amino)phenyl)-3-hydroxypiperidin-4-yl)(methyl)carbamate] was 0.94 nM. The value for `CO[C@@H]1CN(c2cc(C#N)cc(Nc3nc(NC4CC4)c4ncc(C#N)n4n3)c2Cl)CC[C@H]1N` (racemic) [Example 188, (+/−)-2-((3-((3R,4R)-4-amino-3-methoxypiperidin-1-yl)-2-chloro-5-cyanophenyl)amino)-4-(cyclopropylamino)imidazo[2,1-f][1,2,4]triazine-7-carbonitrile] was 200 nM; that for `CC(=O)N[C@@H]1CN(c2cc(C#N)cc(Nc3nc(NC4CC4)c4ncc(C#N)n4n3)c2Cl)CC[C@H]1O` (racemic) [Example 190, (+/−)-N-((3R,4R)-1-(2-chloro-5-cyano-3-((7-cyano-4-(cyclopropylamino)imidazo[2,1-f][1,2,4]triazin-2-yl)amino)phenyl)-4-hydroxypiperidin-3-yl)acetamide] was 0.48 nM.

As to `COC(=O)N[C@@H]1CN(c2cc(C#N)cc(Nc3nc(NC4CC4)c4ncc(C#N)n4n3)c2Cl)CC[C@H]1O` (racemic) [Example 191, (+/−)-methyl ((3R,4R)-1-(2-chloro-5-cyano-3-((7-cyano-4-(cyclopropylamino)imidazo[2,1-f][1,2,4]triazin-2-yl)amino)phenyl)-4-hydroxypiperidin-3-yl)carbamate], the IC50 is 0.66 nM. The same measure for `COC(=O)N[C@@H]1CCN(c2cc(C#N)cc(Nc3nc(NC4CC4)c4ncc(C#N)n4n3)c2Cl)C[C@H]1OC(=O)[C@@H](N)C(C)C` (racemic) [Example 192, (+/−)-(R)-(3S,4S)-1-(2-chloro-5-cyano-3-((7-cyano-4-(cyclopropylamino)imidazo[2,1-f][1,2,4]triazin-2-yl)amino)phenyl)-4-((methoxycarbonyl)amino)piperidin-3-yl 2-amino-3-methylbutanoate]: 2.12 nM.

Consider `COC(=O)Nc1cc(Nc2nc(NC3CC3)c3ncc(C#N)n3n2)c(Cl)c(N2CC[C@@H](NC(=O)OC)[C@@H](F)C2)c1` (racemic) [Example 202, (+/−) methyl (4-chloro-3-((7-cyano-4-(cyclopropylamino)imidazo[2,1-f][1,2,4]triazin-2-yl)amino)-5-((3S,4R)-3-fluoro-4-((methoxycarbonyl)amino)-1-piperidinyl)phenyl)carbamate], for which the IC50 stood at 0.83 nM. For `CC(O)CN1CCN(c2cc(C(F)F)cc(Nc3nc(NC4CC4)c4ncc(C#N)n4n3)c2Cl)CC1` (racemic) [Example 249, (+/−) 2-((2-chloro-5-(difluoromethyl)-3-(4-(2-hydroxypropyl)-1-piperazinyl)phenyl)amino)-4-(cyclopropylamino)imidazo[2,1-f][1,2,4]triazine-7-carbonitrile], the IC50 was 2.22 nM. With `COCC(O)CN1CCN(c2cc(C(F)F)cc(Nc3nc(NC4CC4)c4ncc(C#N)n4n3)c2Cl)CC1` (racemic) [Example 250, (+/−) 2-((2-chloro-5-(difluoromethyl)-3-(4-(2-hydroxy-3-methoxypropyl)-1-piperazinyl)phenyl)amino)-4-(cyclopropylamino)imidazo[2,1-f][1,2,4]triazine-7-carbonitrile], the IC50 stood at 0.73 nM. The value for `N#Cc1cnc2c(NC3CC3)nc(Nc3cc(C(F)F)cc(N4CC(NCC(O)CO)C4)c3Cl)nn12` (racemic) [Example 261, (+/−) 2-((2-chloro-5-(difluoromethyl)-3-(3-((2,3-dihydroxypropyl)amino)-1-azetidinyl)phenyl)amino)-4-(cyclopropylamino)imidazo[2,1-f][1,2,4]triazine-7-carbonitrile] was 2.44 nM; that for `COC(CO)CNC1CN(c2cc(C(F)F)cc(Nc3nc(NC4CC4)c4ncc(C#N)n4n3)c2Cl)C1` (racemic) [Example 262, (+/−) 2-((2-chloro-5-(difluoromethyl)-3-(3-((3-hydroxy-2-methoxypropyl)amino)-1-azetidinyl)phenyl)amino)-4-(cyclopropylamino)imidazo[2,1-f][1,2,4]triazine-7-carbonitrile] was 5 nM; that for `N#Cc1cnc2c(NC3CC3)nc(Nc3cc(C(F)F)cc(N4CCN(C5CCOC5)CC4)c3Cl)nn12` (racemic) [Example 265, (+/−) 2-(2-chloro-5-(difluoromethyl)-3-(4-(tetrahydrofuran-3-yl)piperazin-1-yl)phenylamino)-4-(cyclopropylamino)imidazo[1,2-f][1,2,4]triazine-7-carbonitrile] was 3.49 nM. The value for `CC(C)(O)C1CN(c2cc(C(F)F)cc(Nc3nc(NC4CC4)c4ncc(C#N)n4n3)c2Cl)CCO1` (racemic) [Example 280, (+/−) 2-((2-chloro-5-(difluoromethyl)-3-(2-(1-hydroxy-1-methylethyl)-4-morpholinyl)phenyl)amino)-4-(cyclopropylamino)imidazo[2,1-f][1,2,4]triazine-7-carbonitrile] was 2.09 nM; that for `CC[C@H]1CN(c2cc(C#N)cc(Nc3nc(NC4CC4)c4ncc(C#N)n4n3)c2Cl)C[C@H]1NC(=O)OC` (racemic) [Example 292, (+/−) methyl ((3S,4S)-1-(2-chloro-5-cyano-3-((7-cyano-4-(cyclopropylamino)imidazo[2,1-f][1,2,4]triazin-2-yl)amino)phenyl)-4-ethyl-3-pyrrolidinyl)carbamate] was 2 nM.
